Experimental data as given in patent US20080045419A1, “Screening Assay” (priority 2006, published 2008).
Entries after “also recorded” stand apart in the source; their conditions may differ.

Test system: Rad17 self-interaction (Rad17/Rad17)
Assay: DIPI assay (DNA-damage-induced increased protein interaction), two-hybrid colony growth on -His medium
Format: cell-based, Saccharomyces cerevisiae
Details: for Rad17 self-interaction response in DIPI assay (colony growth on -His medium): wild-type reporter strain CG1945, pCAD1-Rad17/pGBT9-Rad17, plate assay
Description: A reporter strain is co-transformed with Rad17-Gal4-DNA-binding-domain and Rad17-Gal4-transcriptional-activation-domain fusions (“bait” and “prey” plasmids). Enhanced protein-protein interaction is visualized by activation of a Gal4responsive chromosomal reporter gene construct required for histidine synthesis (HIS3) (FIG. 1).
These cells are exposed to a DNA-damaging agent in form of a gradient on a histidine-omission plate. […] It should also be mentioned that the use of a blue color marker (LacZ gene) is possible. It is not unusual that the context of a promoter affects the specific interaction and may be easily addressed by switching to one of a wide variety or readily available commercial and non-commercial expression systems.
[pCAD1-Rad17/pGBT9-Rad17], respectively. […] Responses in a wild-type reporter strain (WT, left two plates) and a mutant deleted for topoisomerase I (top1δ, right) are compared. Cells of the reporter strain (CG1945), previously co-transformed with Rad17 bait/prey Gal4-fusions (pCAD1-Rad17/pGBT9-Rad17) were plated as indicated. The genotoxic agent CPT or DMSO (solvent control) was applied on a filter paper.
Using manual replicating on large petri dishes, these were transferred to -His plates that had been inoculated with cells of a reporter strain, co-transformed with Rad17 bait/prey plasmids as described.
DIPI assay was performed in a high-throughput mode. The Petri dish assay was adapted to the 96 well plate format in order to use conventional high-throughput machinery. Two protocols were explored (FIG. 4). In both cases, the selective agar medium lacking leucine, tryptophan and histidine was poured in the plate wells. In protocol 1, cell suspension was pipeted on top of the plate and, after drying, a sample of CPT. In protocol 2, cells were mixed with agar and pipeted, resulting in a cell-containing agar layer. CPT was added on top. After 3-4 days, the plates were evaluated for colony growth.
All cells will be exposed to a CPT concentration that leads to some low amount of colony formation on selective medium. Briefly, the haploid two-hybrid reporter strain CG1945 (4) is co-transformed with plasmids pGBT9Rad17 and pCAD1-Rad17. […] The selected co-transformant is grown up to stationary phase in yeast synthetic medium (SM) without tryptophan and leucine to retain both plasmids. Incubation period is typically two days at 30° C. with shaking. The standard recipe for yeast SM calls for 2% dextrose, 0.67% yeast nitrogen base with ammonium sulfate/without amino acids (e.g. from US Biological) and a -Trp-Leu amino acid dropout mix (Qbiogene, Inc.).

SMILES | Rad17 self-interaction response in DIPI assay (colony growth on -His medium) | number of colonies in DIPI assay, 96 well plate format (96 well plate, after 3-4 days, compared to control (DMSO), listed as CPT) | Rad17 homomeric interaction response in DIPI assay (top1δ background (topoisomerase I deleted)) | Rad17 self-interaction response in DIPI assay (colony growth on -His medium) (listed as CPT)
CC[C@@]1(OC(=O)CN)C(=O)OCc2c1cc1n(c2=O)Cc2cc3ccccc3nc2-1.Cl [NSC606985, glycine 4-ethyl-3,4,12,14-tetrahydro-3,14-dioxo-1H-pyrano[3′, 4′:6,7]indolizino[1,2-b]quinolin-4-yl ester, (S)-monohydrochloride] | increasing Rad17 self-interaction | – | – | –
CC[C@@]1(O)C(=O)OCc2c1cc1n(c2=O)Cc2cc3ccccc3nc2-1 [camptothecin] | very responsive; also recorded: increasing Rad17 self-interaction | number of colonies increased significantly; also recorded: number of colonies is increased | absence of increased homomeric Rad17 interaction | positive CPT response
